This passage reports IC50, IC95 and inhibition results from patent US8497383B2, “HIV protease inhibitors” (Merck Sharp & Dohme Corp., priority 2009, dated 2013).

The target of one experiment is T1, wild-type HIV-1 protease (Human immunodeficiency virus type 1 group M subtype B, UniProt P04585).
T1 construct: the protease (which was expressed in Eschericia coli); made in house; host or cells: Escherichia coli
Nature of the experiment: Assay for inhibition of microbial expressed HIV protease. The experiment is classed as biochemical. As to the method: Inhibition studies of the reaction of the protease (which was expressed in Eschericia coli) with a peptide substrate [Val-Ser-Gln-Asn-(betanapthyl)Ala-Pro-Ile-Val] (SEQ ID NO: 1). The inhibitor is first preincubated with the enzyme in assay buffer (50 mM sodium acetate, pH 5.5, 100 mM NaCl, and 0.1% BSA) for 30 minutes at room temperature. Substrate is added to 440 micromolar in a total volume of 80 microliters containing 5 picomolar HIV-1 protease, and the reaction is incubated for 1 hour at 30° C. The reaction is quenched by addition of 120 microliters of 10% phosphoric acid, and product formation is determined after separation of product and substrate on a Vydac C18 column connected to an Alliance high performance liquid chromatography system (Waters Corporation). The extent of inhibition of the reaction is determined from the peak area of the products.

Experiment [1] has as its system acute HIV infection of T-lymphoid cells (HIV-1 replication). Nature of the experiment: Assay for inhibition of HIV replication (Spread Assay). The experiment is classed as cell-based. To be noted: Human immunodeficiency virus 1, T-lymphoid, 10% FBS. As to the method:
Assays for the inhibition of acute HIV infection of T-lymphoid cells were conducted in accordance with Vacca, J. P. et al., Proc. Natl. Acad. Sci. USA 1994, 91: 4096.

Molecules are shown by their SMILES.

`CC[C@@H](CN[C@@H]1CNC[C@H]1N(CCC(C)C)S(=O)(=O)c1ccc(N)cc1)NC(=O)[C@@H](NC(=O)OC)C(c1ccccc1)c1ccccc1` [Example 3, N-[(2S)-1-{[(3R,4R)-4-{[(4-aminophenyl)sulfonyl](3-methylbutyl)amino}pyrrolidin-3-yl]amino}butan-2-yl]-Nα-(methoxycarbonyl)-β-phenyl-L-phenylalaninamide] yielded an IC50 against wild-type HIV-1 protease of 0.22 nM. In experiment [1], this compound gave an IC95 of 472 nM.

`COC(=O)N[C@H](C(=O)N[C@H](CN[C@@H]1CNC[C@H]1N(CCC(C)C)S(=O)(=O)c1ccc(N)cc1)CC(C)C)C(c1ccccc1)c1ccccc1` [Example 5, N-[(2S)-1-{[(3R,4R)-4-{[(4-aminophenyl)sulfonyl](3-methylbutyl)amino}pyrrolidin-3-yl]amino}-4-methylpentan-2-yl]-Nα-(methoxycarbonyl)-β-phenyl-L-phenylalaninamide] returned an IC50 on wild-type HIV-1 protease of 3.2 nM. Moreover, in experiment [1], the IC95 amounted to 405 nM.

`COC(=O)N[C@H](C(=O)NCCN[C@@H]1CNC[C@H]1N(Cc1ccccc1)S(=O)(=O)c1ccc(N)cc1)C(c1ccccc1)c1ccccc1` [Example 9, N-(2-{[(3R,4R)-4-{[(4-aminophenyl)sulfonyl](benzyl)amino}pyrrolidin-3-yl]amino}ethyl)-Nα-(methoxycarbonyl)-β-phenyl-L-phenylalaninamide] returned an IC50 against wild-type HIV-1 protease of 8.6 nM. Also, the IC95 in experiment [1] was 505 nM.

At wild-type HIV-1 protease, `COC(=O)N[C@H](C(=O)NCCN[C@@H]1CNC[C@H]1N(C(C)C)S(=O)(=O)c1ccc(N)cc1)C(c1ccccc1)c1ccccc1` [Example 8, N-(2-{[(3R,4R)-4-{[(4-aminophenyl)sulfonyl](isopropyl)amino}pyrrolidin-3-yl]amino}ethyl)-Nα-(methoxycarbonyl)-β-phenyl-L-phenylalaninamide] came in with an IC50 of 22 nM. Also, in experiment [1] (@ 500 nM, read-out: Spread - inhibition at a fixed concentration), the inhibition at 0.5 µM is 26%.

Consider `COC(=O)N[C@H](C(=O)NCCN(C)[C@@H]1CNC[C@H]1N(CCC(C)C)S(=O)(=O)c1ccc(N)cc1)C(c1ccccc1)c1ccccc1` [Example 10, N-{2-[{(3R,4R)-4-[[(4-aminophenyl)sulfonyl](3-methylbutyl)amino]pyrrolidin-3-yl}(methyl)amino]ethyl}-N-alpha-(methoxycarbonyl)-beta-phenyl-L-phenylalaninamide], for which the midpoint of inhibition at wild-type HIV-1 protease, the IC50, lay at 15 nM. The same compound displayed an IC95 in experiment [1] of 217 nM.

`COC(=O)N[C@H](C(=O)NC(C)(C)CN[C@@H]1CNC[C@H]1N(CCC(C)C)S(=O)(=O)c1ccc(N)cc1)C(c1ccccc1)c1ccccc1` [Example 6, N-(1-{[(3R,4R)-4-{[(4-aminophenyl)sulfonyl](3-methylbutyl)amino}pyrrolidin-3-yl]amino}-2-methylpropan-2-yl)-Nα-(methoxycarbonyl)-β-phenyl-L-phenylalaninamide]: the IC50 on wild-type HIV-1 protease is 0.05 nM. Further, in experiment [1], the IC95 was found to be 291 nM.

The compound `COC(=O)N[C@H](C(=O)NCCN[C@@H]1CNC[C@H]1N(CCC(C)C)S(=O)(=O)c1ccc(N)cc1)C(c1ccccc1)c1ccccc1` [Example 1, N-(2-{[(3R,4R)-4-{[(4-aminophenyl)sulfonyl](3-methylbutyl)amino}pyrrolidin-3-yl]amino}ethyl)-Nα-(methoxycarbonyl)-β-phenyl-L-phenylalaninamide] registered an IC50 at wild-type HIV-1 protease of 0.7 nM. For the same compound, the 95% effect level in experiment [1] (IC95) was put at 495 nM.

Take `COC(=O)N[C@H](C(=O)NCCC[C@@H]1CNC[C@H]1N(CCC(C)C)S(=O)(=O)c1ccc(N)cc1)C(c1ccccc1)c1ccccc1` (relative stereo) [Example 12, N-{3-[(3R*,4S*)-4-{[(4-aminophenyl)sulfonyl](3-methylbutyl)amino}pyrrolidin-3-yl]propyl}-Nα-(methoxycarbonyl)-β-phenyl-L-phenylalaninamide]: the IC50 against wild-type HIV-1 protease amounted to 0.05 nM. This compound gave an IC95 in experiment [1] of 324 nM.

The compound `CCCCC(CN[C@@H]1CNC[C@H]1N(CCC(C)C)S(=O)(=O)c1ccc(N)cc1)NC(=O)[C@@H](NC(=O)OC)C(c1ccccc1)c1ccccc1` (stereo partly drawn) [Example 4, N-(1-{[(3R,4R)-4-{[(4-aminophenyl)sulfonyl](3-methylbutyl)amino}pyrrolidin-3-yl]amino}hexan-2-yl)-Nα-(methoxycarbonyl)-β-phenyl-L-phenylalaninamide] registered an IC50 on wild-type HIV-1 protease of 3.6 nM. In experiment [1], this compound returned an IC95 of 399 nM.

On to `COC(=O)N[C@H](C(=O)NCCN[C@@H]1CNC[C@H]1N(CCC(C)C)S(=O)(=O)c1ccc(CO)cc1)C(c1ccccc1)c1ccccc1` [Example 11, N-[2-({(3R,4R)-4-[{[4-(hydroxymethyl)phenyl]sulfonyl}(3-methylbutyl)amino]pyrrolidin-3-yl}amino)ethyl]-Nalpha-(methoxycarbonyl)-beta-phenyl-L-phenylalaninamide], for which inhibition on wild-type HIV-1 protease was half-maximal at 0.29 nM (IC50). This compound registered an IC95 in experiment [1] of 328 nM.

As for `COC(=O)N[C@H](C(=O)NCCN[C@@H]1CNC[C@H]1N(CC(C)C)S(=O)(=O)c1ccc(N)cc1)C(c1ccccc1)c1ccccc1` [Example 7, N-(2-{[(3R,4R)-4-{[(4-aminophenyl)sulfonyl](2-methylpropyl)amino}pyrrolidin-3-yl]amino}ethyl)-Nα-(methoxycarbonyl)-β-phenyl-L-phenylalaninamide], at wild-type HIV-1 protease, the IC50 worked out at 3.7 nM. In experiment [1], this compound yielded an IC95 of 500 nM.

As to `COC(=O)N[C@H](C(=O)N[C@@H](C)CN[C@@H]1CNC[C@H]1N(CCC(C)C)S(=O)(=O)c1ccc(N)cc1)C(c1ccccc1)c1ccccc1` [Example 2, N-[(2S)-1-{[(3R,4R)-4-{[(4-aminophenyl)sulfonyl](3-methylbutyl)amino}pyrrolidin-3-yl]amino}propan-2-yl]-Nα-(methoxycarbonyl)-β-phenyl-L-phenylalaninamide], the IC50 on wild-type HIV-1 protease came to 0.055 nM. This compound showed an IC95 in experiment [1] of 423 nM.

What is called IC50 is the concentration that inhibits the measured activity by half. Read a low IC50 as higher potency. As usually defined, the IC95 is the concentration at which the effect reaches the 95% level. High values mean a need for much substance, low ones an effect from little substance.
